Data published in US20030079241A1, “Premalignant, serially-transplantable breast tissue lines and uses thereof” (priority 2001, published 2003).

Tested on: HPO line A
Assay: Effect of tamoxifen on tumor development in mice with bilateral implants of HPO line A
Assay type: in vivo
Settings: mice receiving bilateral implants of HPO line A; after 15 weeks; all control vehicle mice developed bilateral tumors
Method: The instant invention also provides a method of using the above described premalignant serially-transplantable, hyperplastic outgrowth (HPO) breast tissue lines to screen for new chemopreventative agents against breast cancer. The serially-transplantable breast tissue lines are implanted into the inguinal mammary fat pads of syngeneic, non-transgenic recipient mice. Putative chemopreventative agents are administered to a subset of the implanted mice.
Breast tissue lines A, B, C, D, and E from zone 4 all express high levels of estrogen receptor, which is also expressed in human premalignant breast cells. This is important for testing chemopreventive agents that rely on this receptor. Moreover, the effects of tamoxifen on the development of tumors in mice receiving bilateral implants of HPO line A were examined.

CC/C(=C(\c1ccccc1)c1ccc(OCCN(C)C)cc1)c1ccccc1 [tamoxifen]
development of tumors: None of the mice receiving tamoxifen developed tumors after 15 weeks
